According to the supplement of paper PMC13380429:

Legend:
Conditions in all cases: 72 h
Caco-2 [1] = assay: cell viability relative to DMSO; higher = less toxic
HepG2 [2] = assay: as above
U2OS [3] = assay: as above
Vero E6 [4] = assay: as above
Caco-2 [5] = assay: relative viability EC50 (midpoint between 100% and the lowest measured viability); higher = less toxic
HepG2 [6] = assay: as above
U2OS [7] = assay: as above
Vero E6 [8] = assay: as above
Caco-2 [9] = assay: drug sensitivity score (DSS) for viability; higher = more toxic; extreme values may be limits of the assay
HepG2 [10] = assay: as above
U2OS [11] = assay: as above
Vero E6 [12] = assay: as above
Calu-3 [13] = assay: cell viability relative to DMSO; higher = less toxic
Calu-3 [14] = assay: drug sensitivity score (DSS) for viability; higher = more toxic; extreme values may be limits of the assay
Calu-3 [15] = assay: relative viability EC50 (midpoint between 100% and the lowest measured viability); higher = less toxic

## CO[C@H]1CC[C@@H](C(=O)c2ccc3nc4c(cc3c2)CCCO4)CC1
Caco-2 [1]; 1 nM
  cell viability: 90.8%
Caco-2 [1]; 10 nM
  cell viability: 90.3%
Caco-2 [1]; 100 nM
  cell viability: 104%
Caco-2 [1]; 1000 nM
  cell viability: 99.2%
Caco-2 [1]; 10000 nM
  cell viability: 92.7%
HepG2 [2]; 1 nM
  cell viability: 99.5%
HepG2 [2]; 10 nM
  cell viability: 107%
HepG2 [2]; 100 nM
  cell viability: 104%
HepG2 [2]; 1000 nM
  cell viability: 102%
HepG2 [2]; 10000 nM
  cell viability: 104%
U2OS [3]; 1 nM
  cell viability: 99.8%
U2OS [3]; 10 nM
  cell viability: 93.8%
U2OS [3]; 100 nM
  cell viability: 104%
U2OS [3]; 1000 nM
  cell viability: 97.8%
U2OS [3]; 10000 nM
  cell viability: 101%
Vero E6 [4]; 1 nM
  cell viability: 102%
Vero E6 [4]; 10 nM
  cell viability: 103%
Vero E6 [4]; 100 nM
  cell viability: 93.1%
Vero E6 [4]; 1000 nM
  cell viability: 99%
Vero E6 [4]; 10000 nM
  cell viability: 100%
Caco-2 [5]
  relative viability EC50: > 10 µM
HepG2 [6]
  relative viability EC50: > 10 µM
U2OS [7]
  relative viability EC50: > 10 µM
Vero E6 [8]
  relative viability EC50: > 10 µM
Caco-2 [9]
  drug sensitivity score: 0
HepG2 [10]
  drug sensitivity score: 0
U2OS [11]
  drug sensitivity score: 0
Vero E6 [12]
  drug sensitivity score: 0

## Cc1ccc(F)c(NC(=O)Nc2ccc(-c3cccc4[nH]nc(N)c34)cc2)c1 [linifanib]
Caco-2 [1]; 1 nM
  cell viability: 101%
Caco-2 [1]; 10 nM
  cell viability: 100%
Caco-2 [1]; 100 nM
  cell viability: 101%
Caco-2 [1]; 1000 nM
  cell viability: 89.5%
Caco-2 [1]; 10000 nM
  cell viability: 106%
Calu-3 [13]; 1 nM
  cell viability: 106%
Calu-3 [13]; 10 nM
  cell viability: 89.4%
Calu-3 [13]; 100 nM
  cell viability: 99.1%
Calu-3 [13]; 1000 nM
  cell viability: 86.9%
Calu-3 [13]; 10000 nM
  cell viability: 69.9%
HepG2 [2]; 1 nM
  cell viability: 94.1%
HepG2 [2]; 10 nM
  cell viability: 110%
HepG2 [2]; 100 nM
  cell viability: 115%
HepG2 [2]; 1000 nM
  cell viability: 29.9%
HepG2 [2]; 10000 nM
  cell viability: 13.1%
U2OS [3]; 1 nM
  cell viability: 97.4%
U2OS [3]; 10 nM
  cell viability: 96.6%
U2OS [3]; 100 nM
  cell viability: 101%
U2OS [3]; 1000 nM
  cell viability: 96.5%
U2OS [3]; 10000 nM
  cell viability: 92.2%
Vero E6 [4]; 1 nM
  cell viability: 93.1%
Vero E6 [4]; 10 nM
  cell viability: 101%
Vero E6 [4]; 100 nM
  cell viability: 99.9%
Vero E6 [4]; 1000 nM
  cell viability: 103%
Vero E6 [4]; 10000 nM
  cell viability: 110%
Caco-2 [5]
  relative viability EC50: > 10 µM
HepG2 [6]
  relative viability EC50: 0.583 µM
U2OS [7]
  relative viability EC50: > 10 µM
Vero E6 [8]
  relative viability EC50: > 10 µM
Caco-2 [9]
  drug sensitivity score: 0
Calu-3 [14]
  drug sensitivity score: 2.7
HepG2 [10]
  drug sensitivity score: 12.8
U2OS [11]
  drug sensitivity score: 0
Vero E6 [12]
  drug sensitivity score: 0

## N#Cc1c(-c2ccccc2)cc(-c2cc(Br)ccc2O)[nH]c1=O [TCS-PIM-1-1]
Caco-2 [1]; 1 nM
  cell viability: 96.7%
Caco-2 [1]; 10 nM
  cell viability: 101%
Caco-2 [1]; 100 nM
  cell viability: 104%
Caco-2 [1]; 1000 nM
  cell viability: 97.5%
Caco-2 [1]; 10000 nM
  cell viability: 88.8%
HepG2 [2]; 1 nM
  cell viability: 94.9%
HepG2 [2]; 10 nM
  cell viability: 99.4%
HepG2 [2]; 100 nM
  cell viability: 99.7%
HepG2 [2]; 1000 nM
  cell viability: 94.5%
HepG2 [2]; 10000 nM
  cell viability: 99.2%
U2OS [3]; 1 nM
  cell viability: 99%
U2OS [3]; 10 nM
  cell viability: 96.3%
U2OS [3]; 100 nM
  cell viability: 102%
U2OS [3]; 1000 nM
  cell viability: 97.6%
U2OS [3]; 10000 nM
  cell viability: 93.9%
Vero E6 [4]; 1 nM
  cell viability: 96.9%
Vero E6 [4]; 10 nM
  cell viability: 101%
Vero E6 [4]; 100 nM
  cell viability: 95.5%
Vero E6 [4]; 1000 nM
  cell viability: 96%
Vero E6 [4]; 10000 nM
  cell viability: 93.1%
Caco-2 [5]
  relative viability EC50: > 10 µM
HepG2 [6]
  relative viability EC50: > 10 µM
U2OS [7]
  relative viability EC50: > 10 µM
Vero E6 [8]
  relative viability EC50: > 10 µM
Caco-2 [9]
  drug sensitivity score: 0.1
HepG2 [10]
  drug sensitivity score: 0
U2OS [11]
  drug sensitivity score: 0
Vero E6 [12]
  drug sensitivity score: 0

## CC(C)(C)S(=O)(=O)N[C@H]1CC[C@H](C(=O)Nc2ccc(C(F)(F)F)cn2)CC1 [velneperit]
Caco-2 [1]; 1 nM
  cell viability: 109%
Caco-2 [1]; 10 nM
  cell viability: 98.1%
Caco-2 [1]; 100 nM
  cell viability: 103%
Caco-2 [1]; 1000 nM
  cell viability: 91.7%
Caco-2 [1]; 10000 nM
  cell viability: 104%
Calu-3 [13]; 1 nM
  cell viability: 106%
Calu-3 [13]; 10 nM
  cell viability: 103%
Calu-3 [13]; 100 nM
  cell viability: 117%
Calu-3 [13]; 1000 nM
  cell viability: 95.5%
Calu-3 [13]; 10000 nM
  cell viability: 99.1%
HepG2 [2]; 1 nM
  cell viability: 100%
HepG2 [2]; 10 nM
  cell viability: 105%
HepG2 [2]; 100 nM
  cell viability: 105%
HepG2 [2]; 1000 nM
  cell viability: 98.9%
HepG2 [2]; 10000 nM
  cell viability: 98%
Vero E6 [4]; 1 nM
  cell viability: 94.4%
Vero E6 [4]; 10 nM
  cell viability: 104%
Vero E6 [4]; 100 nM
  cell viability: 98.4%
Vero E6 [4]; 1000 nM
  cell viability: 101%
Vero E6 [4]; 10000 nM
  cell viability: 94.5%
Caco-2 [5]
  relative viability EC50: > 10 µM
Calu-3 [15]
  relative viability EC50: > 10 µM
HepG2 [6]
  relative viability EC50: > 10 µM
Vero E6 [8]
  relative viability EC50: > 10 µM
Caco-2 [9]
  drug sensitivity score: 0
Calu-3 [14]
  drug sensitivity score: 0
HepG2 [10]
  drug sensitivity score: 0
Vero E6 [12]
  drug sensitivity score: 0

## Fc1ccc(C(OCCN2CCN(CCCc3ccccc3)CC2)c2ccc(F)cc2)cc1 [vanoxerine]
Caco-2 [1]; 1 nM
  cell viability: 103%
Caco-2 [1]; 10 nM
  cell viability: 93.2%
Caco-2 [1]; 100 nM
  cell viability: 99.9%
Caco-2 [1]; 1000 nM
  cell viability: 93.1%
Caco-2 [1]; 10000 nM
  cell viability: 50.3%
Calu-3 [13]; 1 nM
  cell viability: 102%
Calu-3 [13]; 10 nM
  cell viability: 94.6%
Calu-3 [13]; 100 nM
  cell viability: 102%
Calu-3 [13]; 1000 nM
  cell viability: 98.9%
Calu-3 [13]; 10000 nM
  cell viability: 81.2%
HepG2 [2]; 1 nM
  cell viability: 102%
HepG2 [2]; 10 nM
  cell viability: 102%
HepG2 [2]; 100 nM
  cell viability: 102%
HepG2 [2]; 1000 nM
  cell viability: 104%
HepG2 [2]; 10000 nM
  cell viability: 11%
U2OS [3]; 1 nM
  cell viability: 106%
U2OS [3]; 10 nM
  cell viability: 102%
U2OS [3]; 100 nM
  cell viability: 103%
U2OS [3]; 1000 nM
  cell viability: 102%
U2OS [3]; 10000 nM
  cell viability: 72.4%
Vero E6 [4]; 1 nM
  cell viability: 107%
Vero E6 [4]; 10 nM
  cell viability: 104%
Vero E6 [4]; 100 nM
  cell viability: 104%
Vero E6 [4]; 1000 nM
  cell viability: 97.1%
Vero E6 [4]; 10000 nM
  cell viability: 35.3%
Calu-3 [15]
  relative viability EC50: > 10 µM
HepG2 [6]
  relative viability EC50: 3.42 µM
Vero E6 [8]
  relative viability EC50: 2.82 µM
Caco-2 [9]
  drug sensitivity score: 3.8
Calu-3 [14]
  drug sensitivity score: 0.6
HepG2 [10]
  drug sensitivity score: 4.6
U2OS [11]
  drug sensitivity score: 1
Vero E6 [12]
  drug sensitivity score: 3.9

## CC(=O)[C@]1(N)Cc2c(O)c3c(c(O)c2[C@@H](O[C@H]2C[C@H](O)[C@H](O)CO2)C1)C(=O)c1ccccc1C3=O [amrubicin]
Caco-2 [1]; 1 nM
  cell viability: 101%
Caco-2 [1]; 10 nM
  cell viability: 105%
Caco-2 [1]; 100 nM
  cell viability: 99.6%
Caco-2 [1]; 1000 nM
  cell viability: 86.9%
Caco-2 [1]; 10000 nM
  cell viability: 7.4%
Calu-3 [13]; 1 nM
  cell viability: 96%
Calu-3 [13]; 10 nM
  cell viability: 117%
Calu-3 [13]; 100 nM
  cell viability: 114%
Calu-3 [13]; 1000 nM
  cell viability: 110%
Calu-3 [13]; 10000 nM
  cell viability: 86.7%
HepG2 [2]; 1 nM
  cell viability: 105%
HepG2 [2]; 10 nM
  cell viability: 110%
HepG2 [2]; 100 nM
  cell viability: 103%
HepG2 [2]; 1000 nM
  cell viability: 84.5%
HepG2 [2]; 10000 nM
  cell viability: -0.2%
U2OS [3]; 1 nM
  cell viability: 104%
U2OS [3]; 10 nM
  cell viability: 99%
U2OS [3]; 100 nM
  cell viability: 102%
U2OS [3]; 1000 nM
  cell viability: 102%
U2OS [3]; 10000 nM
  cell viability: 73.7%
Vero E6 [4]; 1 nM
  cell viability: 96%
Vero E6 [4]; 10 nM
  cell viability: 104%
Vero E6 [4]; 100 nM
  cell viability: 99.8%
Vero E6 [4]; 1000 nM
  cell viability: 88.4%
Vero E6 [4]; 10000 nM
  cell viability: 32.1%
Caco-2 [5]
  relative viability EC50: 2.04 µM
Calu-3 [15]
  relative viability EC50: > 10 µM
HepG2 [6]
  relative viability EC50: 1.96 µM
Vero E6 [8]
  relative viability EC50: 1.87 µM
Caco-2 [9]
  drug sensitivity score: 7.3
Calu-3 [14]
  drug sensitivity score: 0
HepG2 [10]
  drug sensitivity score: 8.1
U2OS [11]
  drug sensitivity score: 0.9
Vero E6 [12]
  drug sensitivity score: 5.7
